Measured values from patent publication US20170045513A1, “METHODS OF DIAGNOSING CELIAC DISEASE USING IP-10” (ImmusanT, Inc., priority 2014, published 2017).
Non-standard residues stand in square brackets, D forms with d. pGlu = O=C1CC[C@@H](C(=O)O)N1

Tests used:
Format in all cases: cell-based, human
gluten-reactive T cells [1] = experiment: 96-well plate whole blood cytokine release, IFNγ by MAGPIX multiplex bead assay; conditions: for Percent of maximal response to individual gluten peptides, IFNg: after oral gluten challenge; for IFNγ WB MAGPIX % max Mean: n = 8, blood after oral gluten challenge, individual peptides 5 μM (Peptide 2* of P14, Pepscan: 10 μg/mL (5.45 μM))
gluten-reactive T cells [2] = experiment: 96-well plate whole blood cytokine release, IP-10 by MAGPIX multiplex bead assay; conditions: for Percent of maximal response to individual gluten peptides, IP-10: after oral gluten challenge; for IP-10 WB MAGPIX % max Mean: n = 10, blood after oral gluten challenge, individual peptides 5 μM (Peptide 2* of P14, Pepscan: 10 μg/mL (5.45 μM))
gluten-reactive T cells [3] = experiment: Overnight IFNγ ELISpot assay with fresh PBMC; conditions: for Percent of maximal response to individual gluten peptides, ELISp: after oral gluten challenge; for IFNγ ELISpot % max Mean: n = 5, blood after oral gluten challenge, individual peptides 5 μM (Peptide 2* of P14, Pepscan: 10 μg/mL (5.45 μM))
In short: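 Read-out is IFNγ spot-forming units per well, counted automatically after overnight culture of fresh PBMC (0.4 million/well) with single peptides (duplicate) or pools (triplicate). Donors: HLA-DQ2.5+ celiac patients on gluten-free diet, bled pre- and day 6 after 3-day oral gluten challenge.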

(pE)QPFPQPEQPFSQQ-amide ([pGlu]QPFPQPEQPFSQQ-NH2; SMILES NC(=O)CC[C@H](NC(=O)[C@H](CCC(N)=O)NC(=O)[C@H](CO)NC(=O)[C@H](Cc1ccccc1)NC(=O)[C@@H]1CCCN1C(=O)[C@H](CCC(N)=O)NC(=O)[C@H](CCC(=O)O)NC(=O)[C@@H]1CCCN1C(=O)[C@H](CCC(N)=O)NC(=O)[C@@H]1CCCN1C(=O)[C@H](Cc1ccccc1)NC(=O)[C@@H]1CCCN1C(=O)[C@H](CCC(N)=O)NC(=O)[C@@H]1CCC(=O)N1)C(N)=O) [Peptide 7]
Percent of maximal response to individual gluten peptides, IFNg (gluten-reactive T cells [1]; Subject 2, Max. 116 pg/mL): 60 % of max
Percent of maximal response to individual gluten peptides, IFNg (gluten-reactive T cells [1]; Subject 3, Max. 799 pg/mL): 2 % of max
Percent of maximal response to individual gluten peptides, IFNg (gluten-reactive T cells [1]; Subject 4, Max. 136 pg/mL): 8 % of max
Percent of maximal response to individual gluten peptides, IFNg (gluten-reactive T cells [1]; Subject 6, Max. 72 pg/mL): 0 % of max
Percent of maximal response to individual gluten peptides, IFNg (gluten-reactive T cells [1]; Subject 7, Max. 17 pg/mL): 0 % of max
Percent of maximal response to individual gluten peptides, IFNg (gluten-reactive T cells [1]; Subject 8, Max. 47 pg/mL): 0 % of max
Percent of maximal response to individual gluten peptides, IFNg (gluten-reactive T cells [1]; Subject 9, Max. 67 pg/mL): 0 % of max
Percent of maximal response to individual gluten peptides, IFNg (gluten-reactive T cells [1]; Subject 10, Max. 229 pg/mL): 1 % of max
IFNγ WB MAGPIX % max Mean (gluten-reactive T cells [1]): 9 % max
Percent of maximal response to individual gluten peptides, IP-10 (gluten-reactive T cells [2]; Subject 1, Max. 2331 pg/mL): 0 % of max
Percent of maximal response to individual gluten peptides, IP-10 (gluten-reactive T cells [2]; Subject 2, Max. 3646 pg/mL): 7 % of max
Percent of maximal response to individual gluten peptides, IP-10 (gluten-reactive T cells [2]; Subject 3, Max. 9492 pg/mL): 60 % of max
Percent of maximal response to individual gluten peptides, IP-10 (gluten-reactive T cells [2]; Subject 4, Max. 9463 pg/mL): 20 % of max
Percent of maximal response to individual gluten peptides, IP-10 (gluten-reactive T cells [2]; Subject 5, Max. 9336 pg/mL): 12 % of max
Percent of maximal response to individual gluten peptides, IP-10 (gluten-reactive T cells [2]; Subject 6, Max. 5863 pg/mL): 0 % of max
Percent of maximal response to individual gluten peptides, IP-10 (gluten-reactive T cells [2]; Subject 7, Max. 2330 pg/mL): 0 % of max
Percent of maximal response to individual gluten peptides, IP-10 (gluten-reactive T cells [2]; Subject 8, Max. 4019 pg/mL): 3 % of max
Percent of maximal response to individual gluten peptides, IP-10 (gluten-reactive T cells [2]; Subject 9, Max. 8349 pg/mL): 17 % of max
Percent of maximal response to individual gluten peptides, IP-10 (gluten-reactive T cells [2]; Subject 10, Max. 8922 pg/mL): 3 % of max
IP-10 WB MAGPIX % max Mean (gluten-reactive T cells [2]): 12 (12) % max
Percent of maximal response to individual gluten peptides, ELISp (gluten-reactive T cells [3]; Subject 3, Max. 18 SFU): 0 % of max
Percent of maximal response to individual gluten peptides, ELISp (gluten-reactive T cells [3]; Subject 4, Max. 36 SFU): 11 % of max
Percent of maximal response to individual gluten peptides, ELISp (gluten-reactive T cells [3]; Subject 6, Max. 16 SFU): 6 % of max
Percent of maximal response to individual gluten peptides, ELISp (gluten-reactive T cells [3]; Subject 8, Max. 17 SFU): 0 % of max
Percent of maximal response to individual gluten peptides, ELISp (gluten-reactive T cells [3]; Subject 10, Max. 11 SFU): 9 % of max
IFNγ ELISpot % max Mean (gluten-reactive T cells [3]): 5 % max

(pE)QPFPQPEQPIPVQPEQS-amide ([pGlu]QPFPQPEQPIPVQPEQS-NH2; SMILES CC[C@H](C)[C@H](NC(=O)[C@@H]1CCCN1C(=O)[C@H](CCC(N)=O)NC(=O)[C@H](CCC(=O)O)NC(=O)[C@@H]1CCCN1C(=O)[C@H](CCC(N)=O)NC(=O)[C@@H]1CCCN1C(=O)[C@H](Cc1ccccc1)NC(=O)[C@@H]1CCCN1C(=O)[C@H](CCC(N)=O)NC(=O)[C@@H]1CCC(=O)N1)C(=O)N1CCC[C@H]1C(=O)N[C@H](C(=O)N[C@@H](CCC(N)=O)C(=O)N1CCC[C@H]1C(=O)N[C@@H](CCC(=O)O)C(=O)N[C@@H](CCC(N)=O)C(=O)N[C@@H](CO)C(N)=O)C(C)C) [Peptide 4]
Percent of maximal response to individual gluten peptides, IFNg (gluten-reactive T cells [1]; Subject 2, Max. 116 pg/mL): 33 % of max
Percent of maximal response to individual gluten peptides, IFNg (gluten-reactive T cells [1]; Subject 3, Max. 799 pg/mL): 13 % of max
Percent of maximal response to individual gluten peptides, IFNg (gluten-reactive T cells [1]; Subject 4, Max. 136 pg/mL): 24 % of max
Percent of maximal response to individual gluten peptides, IFNg (gluten-reactive T cells [1]; Subject 6, Max. 72 pg/mL): 1 % of max
Percent of maximal response to individual gluten peptides, IFNg (gluten-reactive T cells [1]; Subject 7, Max. 17 pg/mL): 1 % of max
Percent of maximal response to individual gluten peptides, IFNg (gluten-reactive T cells [1]; Subject 8, Max. 47 pg/mL): 9 % of max
Percent of maximal response to individual gluten peptides, IFNg (gluten-reactive T cells [1]; Subject 9, Max. 67 pg/mL): 29 % of max
Percent of maximal response to individual gluten peptides, IFNg (gluten-reactive T cells [1]; Subject 10, Max. 229 pg/mL): 11 % of max
IFNγ WB MAGPIX % max Mean (gluten-reactive T cells [1]): 15 % max
Percent of maximal response to individual gluten peptides, IP-10 (gluten-reactive T cells [2]; Subject 1, Max. 2331 pg/mL): 18 % of max
Percent of maximal response to individual gluten peptides, IP-10 (gluten-reactive T cells [2]; Subject 2, Max. 3646 pg/mL): 19 % of max
Percent of maximal response to individual gluten peptides, IP-10 (gluten-reactive T cells [2]; Subject 3, Max. 9492 pg/mL): ≥ 100 % of max
Percent of maximal response to individual gluten peptides, IP-10 (gluten-reactive T cells [2]; Subject 4, Max. 9463 pg/mL): ≥ 100 % of max
Percent of maximal response to individual gluten peptides, IP-10 (gluten-reactive T cells [2]; Subject 5, Max. 9336 pg/mL): 51 % of max
Percent of maximal response to individual gluten peptides, IP-10 (gluten-reactive T cells [2]; Subject 6, Max. 5863 pg/mL): 2 % of max
Percent of maximal response to individual gluten peptides, IP-10 (gluten-reactive T cells [2]; Subject 7, Max. 2330 pg/mL): 3 % of max
Percent of maximal response to individual gluten peptides, IP-10 (gluten-reactive T cells [2]; Subject 8, Max. 4019 pg/mL): 7 % of max
Percent of maximal response to individual gluten peptides, IP-10 (gluten-reactive T cells [2]; Subject 9, Max. 8349 pg/mL): 48 % of max
Percent of maximal response to individual gluten peptides, IP-10 (gluten-reactive T cells [2]; Subject 10, Max. 8922 pg/mL): 30 % of max
IP-10 WB MAGPIX % max Mean (gluten-reactive T cells [2]): 38 % max
Percent of maximal response to individual gluten peptides, ELISp (gluten-reactive T cells [3]; Subject 3, Max. 18 SFU): 17 % of max
Percent of maximal response to individual gluten peptides, ELISp (gluten-reactive T cells [3]; Subject 4, Max. 36 SFU): 44 % of max
Percent of maximal response to individual gluten peptides, ELISp (gluten-reactive T cells [3]; Subject 6, Max. 16 SFU): 19 % of max
Percent of maximal response to individual gluten peptides, ELISp (gluten-reactive T cells [3]; Subject 8, Max. 17 SFU): 12 % of max
Percent of maximal response to individual gluten peptides, ELISp (gluten-reactive T cells [3]; Subject 10, Max. 11 SFU): 27 % of max
IFNγ ELISpot % max Mean (gluten-reactive T cells [3]): 24 % max

(pE)QPFPQPEQPTPIQPEQP-amide ([pGlu]QPFPQPEQPTPIQPEQP-NH2; SMILES CC[C@H](C)[C@H](NC(=O)[C@@H]1CCCN1C(=O)[C@@H](NC(=O)[C@@H]1CCCN1C(=O)[C@H](CCC(N)=O)NC(=O)[C@H](CCC(=O)O)NC(=O)[C@@H]1CCCN1C(=O)[C@H](CCC(N)=O)NC(=O)[C@@H]1CCCN1C(=O)[C@H](Cc1ccccc1)NC(=O)[C@@H]1CCCN1C(=O)[C@H](CCC(N)=O)NC(=O)[C@@H]1CCC(=O)N1)[C@@H](C)O)C(=O)N[C@@H](CCC(N)=O)C(=O)N1CCC[C@H]1C(=O)N[C@@H](CCC(=O)O)C(=O)N[C@@H](CCC(N)=O)C(=O)N1CCC[C@H]1C(N)=O) [Peptide 5]
Percent of maximal response to individual gluten peptides, IFNg (gluten-reactive T cells [1]; Subject 2, Max. 116 pg/mL): 39 % of max
Percent of maximal response to individual gluten peptides, IFNg (gluten-reactive T cells [1]; Subject 3, Max. 799 pg/mL): 5 % of max
Percent of maximal response to individual gluten peptides, IFNg (gluten-reactive T cells [1]; Subject 4, Max. 136 pg/mL): 13 % of max
Percent of maximal response to individual gluten peptides, IFNg (gluten-reactive T cells [1]; Subject 6, Max. 72 pg/mL): 1 % of max
Percent of maximal response to individual gluten peptides, IFNg (gluten-reactive T cells [1]; Subject 7, Max. 17 pg/mL): 6 % of max
Percent of maximal response to individual gluten peptides, IFNg (gluten-reactive T cells [1]; Subject 8, Max. 47 pg/mL): 0 % of max
Percent of maximal response to individual gluten peptides, IFNg (gluten-reactive T cells [1]; Subject 9, Max. 67 pg/mL): 0 % of max
Percent of maximal response to individual gluten peptides, IFNg (gluten-reactive T cells [1]; Subject 10, Max. 229 pg/mL): 27 % of max
IFNγ WB MAGPIX % max Mean (gluten-reactive T cells [1]): 11 (11) % max
Percent of maximal response to individual gluten peptides, IP-10 (gluten-reactive T cells [2]; Subject 1, Max. 2331 pg/mL): 0 % of max
Percent of maximal response to individual gluten peptides, IP-10 (gluten-reactive T cells [2]; Subject 2, Max. 3646 pg/mL): 13 % of max
Percent of maximal response to individual gluten peptides, IP-10 (gluten-reactive T cells [2]; Subject 3, Max. 9492 pg/mL): ≥ 100 % of max
Percent of maximal response to individual gluten peptides, IP-10 (gluten-reactive T cells [2]; Subject 4, Max. 9463 pg/mL): 46 % of max
Percent of maximal response to individual gluten peptides, IP-10 (gluten-reactive T cells [2]; Subject 5, Max. 9336 pg/mL): 13 % of max
Percent of maximal response to individual gluten peptides, IP-10 (gluten-reactive T cells [2]; Subject 6, Max. 5863 pg/mL): 1 % of max
Percent of maximal response to individual gluten peptides, IP-10 (gluten-reactive T cells [2]; Subject 7, Max. 2330 pg/mL): 2 % of max
Percent of maximal response to individual gluten peptides, IP-10 (gluten-reactive T cells [2]; Subject 8, Max. 4019 pg/mL): 4 % of max
Percent of maximal response to individual gluten peptides, IP-10 (gluten-reactive T cells [2]; Subject 9, Max. 8349 pg/mL): 10 % of max
Percent of maximal response to individual gluten peptides, IP-10 (gluten-reactive T cells [2]; Subject 10, Max. 8922 pg/mL): 60 % of max
IP-10 WB MAGPIX % max Mean (gluten-reactive T cells [2]): 25 % max
Percent of maximal response to individual gluten peptides, ELISp (gluten-reactive T cells [3]; Subject 3, Max. 18 SFU): 17 % of max
Percent of maximal response to individual gluten peptides, ELISp (gluten-reactive T cells [3]; Subject 4, Max. 36 SFU): 19 % of max
Percent of maximal response to individual gluten peptides, ELISp (gluten-reactive T cells [3]; Subject 6, Max. 16 SFU): 0 % of max
Percent of maximal response to individual gluten peptides, ELISp (gluten-reactive T cells [3]; Subject 8, Max. 17 SFU): 18 % of max
Percent of maximal response to individual gluten peptides, ELISp (gluten-reactive T cells [3]; Subject 10, Max. 11 SFU): 55 % of max
IFNγ ELISpot % max Mean (gluten-reactive T cells [3]): 22 % max
